{"source": "patent EP3431468B1", "about": "“USE OF ADIPONECTIN RECEPTOR AGONISTS IN TREATING DEPRESSION, ANXIETY AND NEUROINFLAMMATION” (CENTRE NATIONAL DE LA RECHERCHE SCIENTIFIQUE, priority 2017, dated 2019)", "key": {"[1]": {"system": "wt and depression-like mouse models", "test": "Forced Swimming test (FST), acute administration", "assay_type": "in vivo", "details": "LPS-treated mice (0.83 mg/kg LPS), 1mg/kg ip", "experimental": "(§1) Three well-established mouse models of depression-like behavior have been used in the present study namely i- the long-term corticosterone treatment in the drinking water (David, Samuels et al. 2009), ii- the peripheral administration of LPS (O'Connor, Lawson et al. 2009) iii- the ApN^-/- mice (Liu, Guo et al. 2012). For chronic AdipoRon treatment, the experimental protocol was as followed: • i- Five weeks old male mice (five/cage) received corticosterone (35mg/L dissolved in tap water containing 4 g/L CD) or vehicle alone ad libitum for during 7 consecutive weeks (David, Samuels et al. 2009). Corticosterone and vehicle solutions were changed every 3 days to prevent possible degradation. […]\n(§2) All behavioral testing were conducted during the light phase (between 09:00 and 14:00 am) in compliance with the Institutional Animal Care and Use Committee of the University of Nice-Sophia Antipolis (permission number 010344.01 from the French \"Ministère de l'Enseignement Supérieur et de la Recherche\" granted to Dr. Joëlle Chabry). • Forced Swimming test (FST) - Mice were placed an inescapable transparent tank (20cm diameter, 30cm deep) filled with water (23°C ± 0.5) for six minutes as previously described by Porsolt et al. (1977). […] To initiate testing, mice were placed into the light side and activity was recorded for 5 minutes. […]"}, "[2]": {"system": "corticosterone-treated mice", "test": "Novelty Suppressed Feeding (NSF), chronic administration", "assay_type": "in vivo", "details": "chronic 1mg/kg ip daily", "experimental": "as §1, §2"}, "[3]": {"test": "Weight, food and water intake under chronic treatment", "assay_type": "in vivo, mice", "details": "chronic AdipoRon treatment", "experimental": "Three well-established mouse models of depression-like behavior have been used in the present study namely i- the long-term corticosterone treatment in the drinking water (David, Samuels et al. 2009), ii- the peripheral administration of LPS (O'Connor, Lawson et al. 2009) iii- the ApN^-/- mice (Liu, Guo et al. 2012). For chronic AdipoRon treatment, the experimental protocol was as followed: • i- Five weeks old male mice (five/cage) received corticosterone (35mg/L dissolved in tap water containing 4 g/L CD) or vehicle alone ad libitum for during 7 consecutive weeks (David, Samuels et al. 2009). Corticosterone and vehicle solutions were changed every 3 days to prevent possible degradation. Additionally, during the last three weeks of corticosterone treatment, mice were daily intraperitoneally (ip) injected with AdipoRon (1mg/kg in 2.5% DMSO) or vehicle alone. • ii- Eight weeks old male mice daily ip injected with AdipoRon or vehicle as described above for twenty consecutive days. One day prior behavioral testing, mice were injected ip with LPS (0.83 mg/kg) or saline solution; the LPS dose was selected on the basis of its ability to induce the full spectrum of the acute sickness and depressive-like behaviors (Lestage, Verrier et al. 2002)."}, "[4]": {"system": "hippocampal neurogenesis", "test": "Hippocampal neurogenesis (BrdU-positive cells in dentate gyrus)", "assay_type": "in vivo, mice", "details": "chronic AdipoRon"}, "[5]": {"test": "Kinetic of AdipoRon in plasma and brain areas by HPLC coupled to MS/MS", "assay_type": "in vivo", "details": "for time of highest level of AdipoRon post ip injection: 1mg/kg ip; for level of AdipoRon: 3-hours post ip injection, 1mg/kg"}, "[6]": {"system": "neurons of dorso-median raphe nucleus", "test": "Whole-cell patch-clamp recordings on brain slices, current clamp", "assay_type": "cell-based, mouse"}, "[7]": {"system": "wt and depression-like mouse models", "test": "Forced Swimming test (FST), acute administration", "assay_type": "in vivo, mice"}, "[8]": {"biological_target": "T1, AdipoRl (Homo sapiens, UniProt Q96A54)", "T1 sequence (Q96A54 1-375)": "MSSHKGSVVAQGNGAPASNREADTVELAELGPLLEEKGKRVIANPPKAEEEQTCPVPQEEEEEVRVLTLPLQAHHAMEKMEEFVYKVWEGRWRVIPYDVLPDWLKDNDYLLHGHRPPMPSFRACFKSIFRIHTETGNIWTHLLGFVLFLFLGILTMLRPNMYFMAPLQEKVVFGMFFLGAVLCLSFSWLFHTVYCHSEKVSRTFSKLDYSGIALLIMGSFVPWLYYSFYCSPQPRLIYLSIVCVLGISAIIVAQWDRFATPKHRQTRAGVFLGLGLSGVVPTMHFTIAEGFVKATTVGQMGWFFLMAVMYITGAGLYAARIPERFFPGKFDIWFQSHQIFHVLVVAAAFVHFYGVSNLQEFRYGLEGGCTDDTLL", "details": "Okada-Iwabu, Yamauchi et al. 2013; cited from earlier work"}}}
{"smiles": "O=C(COc1ccc(C(=O)c2ccccc2)cc1)NC1CCN(Cc2ccccc2)CC1", "note": "[AdipoRon, 2-(4-Benzoylphenoxy)-N-[1-(phenylmethyl)-4-piperidinyl]-acetamide]", "values": [{"measurement": "immobility time in the FST", "setting": "[1]", "value": "significantly to reducing this parameter"}, {"measurement": "latency to eat in the NSF", "setting": "[2]; corticosterone-treated mice", "value": "reversed the effect of corticosterone"}, {"measurement": "latency to eat in the NSF", "setting": "[2]; vehicle-treated mice (no corticosterone)", "value": "no significant effect"}, {"measurement": "food and water intake", "setting": "[3]", "value": "did not significantly modify"}, {"measurement": "weight of mice", "setting": "[3]", "value": "did not significantly modify"}, {"measurement": "hippocampal neurogenesis rate (BrdU-positive nuclei in dentate gyrus)", "setting": "[4]; control conditions (no corticosterone)", "value": "without modifying neurogenesis"}, {"measurement": "hippocampal neurogenesis rate (BrdU-positive nuclei in dentate gyrus)", "setting": "[4]; long-term corticosterone-treated mice, 21-days post-BrdU injections", "value": "reversed the deleterious effect of corticosterone"}, {"measurement": "time of highest level of AdipoRon post ip injection", "setting": "[5]; hippocampus", "value": "thirty"}, {"measurement": "level of AdipoRon", "setting": "[5]; hippocampus", "value": "barely detectable"}, {"measurement": "time of highest level of AdipoRon post ip injection", "setting": "[5]; hypothalamus", "value": "thirty"}, {"measurement": "level of AdipoRon", "setting": "[5]; hypothalamus", "value": "barely detectable"}, {"measurement": "blood-brain barrier (BBB) crossing", "setting": "[5]; ip injection, mice", "value": "crosses the BBB"}, {"measurement": "time of highest level of AdipoRon post ip injection", "setting": "[5]; plasma", "value": "thirty"}, {"measurement": "level of AdipoRon", "setting": "[5]; plasma", "value": "barely detectable"}, {"measurement": "action potential discharge", "setting": "[6]; 1/7 presumed serotoninergic neuron, current clamp", "value": "no effect"}, {"measurement": "membrane potential", "setting": "[6]; 6 out of 7 presumed serotoninergic neurons, current clamp", "value": "small depolarization"}, {"measurement": "action potential discharge frequency", "setting": "[6]; 6 out of 7 presumed serotoninergic neurons, current clamp, N= 4 mice", "value": "increase in action potential discharge frequency"}, {"measurement": "membrane potential", "setting": "[6]; presumed non-serotoninergic neurons, 2/4", "value": "hyperpolarization"}, {"measurement": "membrane potential", "setting": "[6]; presumed non-serotoninergic neurons, the other 2/4", "value": "no effect"}, {"measurement": "immobility time in the FST", "setting": "[7]; ApN-/- mice, 0.5mg/kg ip, one-hour post injection", "value": "remained inefficient"}, {"measurement": "immobility time in the FST", "setting": "[7]; ApN-/- mice, 1mg/kg per os (gavage), one-hour before FST", "value": "reduced the immobility time"}, {"measurement": "immobility time in the FST", "setting": "[7]; ApN-/- mice, 5mg/kg ip, one-hour post injection", "value": "decreased the immobility time"}, {"measurement": "immobility time in the FST", "setting": "[7]; C57BL/6J wt mice, 1mg/kg ip, 1h post-injection, vs vehicle", "value": "decreased the immobility time"}, {"measurement": "immobility time in the FST", "setting": "[7]; C57BL/6J wt mice, 1mg/kg ip, 3h post-injection, vs vehicle", "value": "no significant effect"}, {"measurement": "immobility time in the FST", "setting": "[7]; corticosterone-treated mice, 0.5mg/kg ip, one-hour post injection", "value": "significantly reduced the immobility time"}, {"measurement": "immobility time in the FST", "setting": "[7]; corticosterone-treated mice, 5mg/kg ip, one-hour post injection", "value": "decreased the immobility time"}, {"measurement": "immobility time in the FST", "setting": "[7]; wt mice, 0.5mg/kg ip, one-hour post injection", "value": "significantly reduced the immobility time"}, {"measurement": "immobility time in the FST", "setting": "[7]; wt mice, 1mg/kg per os (gavage), one-hour before FST", "value": "reduced the immobility time"}, {"measurement": "immobility time in the FST", "setting": "[7]; wt mice, 5mg/kg ip, one-hour post injection", "value": "decreased the immobility time"}, {"measurement": "binding to adiponectin receptor", "setting": "[8]", "value": "bind"}]}
